What all share (format): in vivo, Mice C57BI/6
Data set [1] relates to melanoma-derived peptide TRP-2181-188 (TRP-2181-188-specific T cells). Description: IFN-γ ELISPOT on draining lymph node cells after footpad injection of TRP-2181-188 peptide with ODN. The settings on record: for TRP-2181-188-specific immune response (number of IFN-γ-producing cells/1×10^6 lymph node cells) with co-injection of poly-L-arginine: ODN 5 nmol/mouse + TRP-2181-188 100 μg/mouse + pR60 100 μg/mouse; for TRP-2181-188-specific immune response (number of IFN-γ-producing cells/1×10^6 lymph node cells) with co-injection of poly-L-arginine / TRP-2181-188-specific immune response (number of IFN-γ-producing cells/1×10^6 lymph node cells): hind footpads; for TRP-2181-188-specific immune response (number of IFN-γ-producing cells/1×10^6 lymph node cells) / TRP-2181-188-specific immune response (IFN-γ-producing cells), FIG. 7-9: ODN 5 nmol/mouse + TRP-2181-188 100 μg/mouse; for TRP-2181-188-specific immune response (number of IFN-γ-producing cells/1×10^6 lymph node cells): no poly-L-arginine, lymph nodes 4 days later; for TRP-2181-188-specific immune response (IFN-γ-producing cells), FIG. 7-9: groups with and without pR 60, 4 days. On the procedure:
(§1) Animals were sacrificed 4 days after injection and popliteal lymph nodes were harvested. Lymph nodes were passed through a 70 μm cell strainer and washed twice with DMEM medium (GIBCO BRL) containing 5% fetal calf serum (FCS, SIGMA chemicals). Cells were adjusted to the appropriate cell number in DMEM/5%/FCS. An IFN-γ ELISPOT assay was carried out in triplicates as described (Miyahira et al., 1995). This method is a widely used procedure allowing the quantification of antigen-specific T cells. Lymphocytes were stimulated ex vivo in triplicates with medium (background-control), TRP-2181-188-peptide, an irrelevant peptide OVA257-264, pR 60, U-ODN13 and Concanavalin A (Con A). Spots representing single IFN-γ producing T cells were counted and the number of background spots was substracted from all samples. The high number of spots detected after the stimulation with Con A (data not shown) indicates a good condition of the used lymphocytes. For each experimental group of mice the number of IFN-γ-producing cells/1×10^6 cells are illustrated in FIG. 1, the standard deviation of ex vivo-stimulated triplicates is given.
as §1, with “U-ODN15” for “U-ODN13”, “5,” for “1,”
as §1, with “U-ODN 16, ODN 20” for “pR 60, U-ODN13”, “6,” for “1,”
Animals were sacrificed 4 days after injection and popliteal lymph nodes were harvested. Lymph nodes were passed through a 70 μm cell strainer and washed twice with DMEM medium (GIBCO BRL) containing 5% fetal calf serum (FCS, SIGMA chemicals). Cells were adjusted to the appropriate cell number in DMEM/5%/FCS. An IFN-γ ELISPOT assay was carried out in triplicates as described (Miyahira et al., 1995). This method is a widely used procedure allowing the quantification of antigen-specific T cells. […]

For data set [2], the system named is mouse mastocytoma-derived peptide P1A35-43. The data set can be described thus: IFN-γ ELISPOT on draining lymph node cells after footpad injection of P1A35-43 peptide with ODN. On the procedure: as §1, with “P1A35-43 peptide,” for “TRP-2181-188-peptide,”, “CSP (SYVPSAEQI, SEQ ID NO:18),” for “OVA257-264,”, “U-ODN 13” for “U-ODN13”, “spots/1×10^6” for “IFN-γ-producing cells/1×10^6”, “4,” for “1,”

The test system of data set [3] is ovalbumin-derived peptide OVA257-264. The data set can be described thus: IFN-γ ELISPOT on draining lymph node cells after footpad injection of OVA257-264 peptide with ODN. The conditions noted are these: ODN 5 nmol/mouse + OVA257-264 300 μg/mouse, no pR60, 4 days. The procedure: as §1, with “duplicates” for “triplicates”, “OVA257-264 peptide,” for “TRP-2181-188-peptide,”, “TRP-2181-188,” for “OVA257-264,”, “3,” for “1,”

Entries after “also recorded” stand apart in the source; their conditions may differ.

Regarding hhh wdu dhh h [U-ODN 16], the “TRP-2181-188-specific immune response (IFN-γ-producing cells), 10mer cocktail” value in data set [1] (ODN 10 nmol/mouse + TRP-2181-188 100 μg/mouse, no pR60, compared to peptide alone or with ODN 20, 4 days) is on record as “strong immune response”.

nhh hhh wdu dhh hhh hhh wn [U-ODN 15]: the “TRP-2181-188-specific immune response (IFN-γ-producing cells) at 10 times less ODN” value in data set [1] (ODN 0.5 nmol/mouse + TRP-2181-188 100 μg/mouse, 4 days) is “strong immune response could be induced”. Also, the “TRP-2181-188-specific immune response (number of IFN-γ-producing cells/1×10^6 lymph node cells) with co-injection of poly-L-arginine” value in data set [1] (4 days) is listed as “does not influence this strong response; also recorded: strong immune response”. Also, the “TRP-2181-188-specific immune response (number of IFN-γ-producing cells/1×10^6 lymph node cells)” value in data set [1] was “strongly enhances; also recorded: strong immune response”.

“tcc atg acu ttc ctg atg ct [U-ODN 13] (TCCATGACUTTCCTGATGCT; chemistry not given here)”: the “TRP-2181-188-specific immune response (number of IFN-γ-producing cells/1×10^6 lymph node cells) with co-injection of poly-L-arginine” value in data set [1] (4 days) is given as “strong immune response; also recorded: does not influence this strong response”. In addition, the “TRP-2181-188-specific immune response (number of IFN-γ-producing cells/1×10^6 lymph node cells)” value in data set [1] was “strong immune response; also recorded: strongly enhances”. Further, the “TRP-2181-188-specific T cells / immune response compared to CpG-ODN 1668” value in data set [1] (ODN 5 nmol/mouse vs CpG 1668 5 nmol/mouse, each with TRP-2181-188, 4 days) is “higher number”. The “P1A35-43-specific immune response with co-injection of poly-L-arginine” value in data set [2] (ODN 5 nmol/mouse + P1A35-43 100 μg/mouse + pR60 100 μg/mouse, 4 days) was “further enhanced”. Also, the “P1A35-43-specific immune response (IFN-γ-producing cells/1×10^6 lymph node cells)” value in data set [2] (ODN 5 nmol/mouse + P1A35-43 100 μg/mouse, no pR60, 4 days) is “strong immune response”. Further, the “OVA257-264-specific immune response (IFN-γ-producing cells/1×10^6 lymph node cells)” value in data set [3] is “induces an immune response”.

Regarding “tcc atg acu ttc ctg atg ct [U-ODN 13b] (DNA TCCATGACUTTCCTGCTGATGCT; DNA, backbone and methylation of C not given here; further chemistry not fully specified)”, the “TRP-2181-188-specific immune response (number of IFN-γ-producing cells/1×10^6 lymph node cells) with co-injection of poly-L-arginine” value in data set [1] (4 days) was “only after co-injection of poly-L-arginine a strong peptide-specific immune response is induced; also recorded: only upon co-injection of poly-L-arginine a high immune response was induced”.

Regarding “uau aua uau aua uau aua uau aua ua (UAUAUAUAUAUAUAUAUAUAUAUAUA; DNA, all phosphorothioate, T or U not given here) [U-ODN 21]”, the “TRP-2181-188-specific immune response (IFN-γ-producing cells), FIG. 7-9” value (shortened to “TRP-2181-188-specific immune response … FIG. 7-9”) in data set [1] was “generation of specific immune responses”.

“uiu iui uiu iui uiu iui uiu iui ug [U-ODN 22]”: the “TRP-2181-188-specific immune response … FIG. 7-9” value in data set [1] was “generation of specific immune responses”.

Take “uuu uuu uuu uuu uuu uuu uuu uuu ut (UUUUUUUUUUUUUUUUUUUUUUUUUT; DNA, all phosphorothioate, T or U not given here) [U-ODN 24]”: the “TRP-2181-188-specific immune response … FIG. 7-9” value in data set [1] is listed as “generation of specific immune responses”.

The record behind these values is US7858588B2, “Immunostimulatory oligodeoxynucleic molecules” (Intercell AG, priority 2001, dated 2010).
